From PMC7450990 (Journal of medicinal chemistry, 2019) come the findings set out here.

Data set [1] deals with CYP3A4 (Homo sapiens, UniProt P08684). Briefly: CYP3A4 inhibition.
A short description of data set [2]: Parallel artificial membrane permeability assay. Particulars: hexadecane membrane.
For data set [3], the system named is Hh pathway (endogenous Gli1 mRNA levels), ASZ-001 cells. Briefly: cells. Conditions: Mus musculus, ASZ001, 48 h, read-out: IC50 (Hh pathway inhibition, Gli1 mRNA), ASZ-001 cells, 48 h incubation, Mean ± SEM.
Data set [4] is described as follows: Metabolic stability. Particulars: human, microsomes.
Data set [5] has as its system Hh pathway (endogenous Gli1 mRNA levels), ASZ-001 cells. Particulars: at the concentrations tested.
The target in data set [6] is T1, Breast Cancer Resistance Protein (BCRP) (Homo sapiens, UniProt Q9UNQ0).
T1 sequence (Q9UNQ0 1-655): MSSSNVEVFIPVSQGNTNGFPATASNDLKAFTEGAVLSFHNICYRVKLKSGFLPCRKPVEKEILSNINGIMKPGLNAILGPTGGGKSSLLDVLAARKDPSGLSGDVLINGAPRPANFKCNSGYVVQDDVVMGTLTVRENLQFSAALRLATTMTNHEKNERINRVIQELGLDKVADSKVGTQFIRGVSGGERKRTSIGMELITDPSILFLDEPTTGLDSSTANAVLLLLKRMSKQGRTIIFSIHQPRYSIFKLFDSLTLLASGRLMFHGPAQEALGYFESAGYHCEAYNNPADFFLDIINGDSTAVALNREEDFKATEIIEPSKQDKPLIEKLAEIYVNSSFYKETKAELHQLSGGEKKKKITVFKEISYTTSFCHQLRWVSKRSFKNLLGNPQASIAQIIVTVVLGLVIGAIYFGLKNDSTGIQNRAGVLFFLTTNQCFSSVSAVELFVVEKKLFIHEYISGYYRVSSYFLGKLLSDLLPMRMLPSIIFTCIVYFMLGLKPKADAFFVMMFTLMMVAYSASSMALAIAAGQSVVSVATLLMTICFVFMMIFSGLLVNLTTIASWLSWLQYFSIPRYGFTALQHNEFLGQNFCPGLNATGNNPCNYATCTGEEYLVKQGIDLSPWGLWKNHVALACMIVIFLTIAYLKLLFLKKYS
Kind of data set: Efflux pump substrate, BCRP. It counts as in vitro ADME.

In data set [7] the target is P-glycoprotein (P-gp) (Homo sapiens, UniProt P08183). Briefly: Efflux pump substrate, P-gp. The format is in vitro ADME.
Chain of P-glycoprotein (P-gp) (P08183 whole entry): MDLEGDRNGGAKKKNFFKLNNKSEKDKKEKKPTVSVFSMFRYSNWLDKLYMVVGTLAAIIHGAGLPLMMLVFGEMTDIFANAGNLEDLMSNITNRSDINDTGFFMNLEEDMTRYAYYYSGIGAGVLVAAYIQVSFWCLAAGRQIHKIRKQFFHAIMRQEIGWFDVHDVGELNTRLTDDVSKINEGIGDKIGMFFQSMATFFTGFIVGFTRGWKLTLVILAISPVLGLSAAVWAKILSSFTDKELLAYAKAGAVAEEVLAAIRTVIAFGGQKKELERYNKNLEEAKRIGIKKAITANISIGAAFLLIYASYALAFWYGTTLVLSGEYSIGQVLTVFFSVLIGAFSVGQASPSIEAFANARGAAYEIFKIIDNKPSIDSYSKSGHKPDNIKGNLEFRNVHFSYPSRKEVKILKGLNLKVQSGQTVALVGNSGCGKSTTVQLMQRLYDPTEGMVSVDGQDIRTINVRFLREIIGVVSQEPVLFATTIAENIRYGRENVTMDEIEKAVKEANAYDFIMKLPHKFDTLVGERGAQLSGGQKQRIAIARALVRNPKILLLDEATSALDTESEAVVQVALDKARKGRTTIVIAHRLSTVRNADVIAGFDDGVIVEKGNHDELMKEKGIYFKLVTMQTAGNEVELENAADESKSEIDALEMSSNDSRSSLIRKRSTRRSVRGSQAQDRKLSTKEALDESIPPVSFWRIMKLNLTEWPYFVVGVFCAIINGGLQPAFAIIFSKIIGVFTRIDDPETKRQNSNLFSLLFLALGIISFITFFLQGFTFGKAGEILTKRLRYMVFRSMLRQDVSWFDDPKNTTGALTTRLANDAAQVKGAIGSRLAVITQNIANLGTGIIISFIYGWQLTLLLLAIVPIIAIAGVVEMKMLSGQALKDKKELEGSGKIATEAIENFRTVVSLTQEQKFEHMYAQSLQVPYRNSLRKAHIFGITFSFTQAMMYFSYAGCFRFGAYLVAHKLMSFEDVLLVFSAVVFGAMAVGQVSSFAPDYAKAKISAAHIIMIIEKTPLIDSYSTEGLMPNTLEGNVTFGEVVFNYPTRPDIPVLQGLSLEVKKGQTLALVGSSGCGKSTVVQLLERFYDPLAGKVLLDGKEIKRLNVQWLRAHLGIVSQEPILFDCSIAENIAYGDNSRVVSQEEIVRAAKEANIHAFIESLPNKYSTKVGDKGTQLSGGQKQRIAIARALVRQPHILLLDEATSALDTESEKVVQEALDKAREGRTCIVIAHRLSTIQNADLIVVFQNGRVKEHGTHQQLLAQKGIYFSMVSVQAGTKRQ

Chain of CYP3A4 (P08684 whole entry): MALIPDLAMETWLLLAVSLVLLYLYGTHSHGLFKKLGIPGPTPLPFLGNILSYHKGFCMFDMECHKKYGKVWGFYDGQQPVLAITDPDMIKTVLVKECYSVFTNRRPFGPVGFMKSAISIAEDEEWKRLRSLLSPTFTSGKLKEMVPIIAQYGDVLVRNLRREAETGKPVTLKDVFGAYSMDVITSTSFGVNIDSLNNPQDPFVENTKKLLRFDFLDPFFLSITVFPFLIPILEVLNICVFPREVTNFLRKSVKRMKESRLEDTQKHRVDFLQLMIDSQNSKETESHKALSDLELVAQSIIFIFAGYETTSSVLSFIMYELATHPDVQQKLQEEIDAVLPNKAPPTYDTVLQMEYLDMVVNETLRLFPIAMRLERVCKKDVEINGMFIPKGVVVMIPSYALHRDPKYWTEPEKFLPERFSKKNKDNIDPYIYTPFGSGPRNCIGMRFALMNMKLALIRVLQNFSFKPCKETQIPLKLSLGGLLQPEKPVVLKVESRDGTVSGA

For orientation: IC50 means the midpoint of a concentration-inhibition curve. Regarding `CC[C@@H](C)n1ncn(-c2ccc(N3CCN(c4ccc(OC[C@@H]5CO[C@](C)(c6ccc(Cl)cc6Cl)O5)cc4)CC3)cc2)c1=O` [Compound 2a], the half-inhibitory concentration (IC50) in data set [1] is over 20 µM.
As for `CC[C@@H](C)n1ncn(-c2ccc(N3CCN(c4ccc(OC[C@@H]5CO[C@@](C)(c6ccc(Cl)cc6Cl)O5)cc4)CC3)cc2)c1=O` [Compound 2b], the IC50 in data set [1] is 1.02 µM. Further, the “PAMPA -log Pe” value in data set [2] stood at 9.0.
As for `C[C@@]1(c2ccc(Cl)cc2Cl)OC[C@@H](COc2ccc(N3CCN(c4ccc(NC(=O)c5ccccc5)cc4)CC3)cc2)O1` [Compound 10, N-(4-(4-(4-(((2R,4R)-2-(2,4-dichlorophenyl)-2-methyl-1,3-dioxolan-4-yl)methoxy)phenyl)piperazin-1-yl)phenyl)benzamide], the half-inhibitory concentration (IC50) in data set [3] is over 10 µM.
On to `C[C@@]1(c2ccc(Cl)cc2Cl)OC[C@@H](COc2ccc(N3CCN(c4ccc(NC(=O)c5ccc6ccccc6c5)cc4)CC3)cc2)O1` [Compound 11, N-(4-(4-(4-(((2R,4R)-2-(2,4-dichlorophenyl)-2-methyl-1,3-dioxolan-4-yl)methoxy)phenyl)piperazin-1-yl)phenyl)-2-naphthamide], for which, in data set [3], the IC50 was over 10 µM.
Compound `C[C@@]1(c2ccc(Cl)cc2Cl)OC[C@@H](COc2ccc(N3CCN(c4ccc(NC(=O)c5cccnc5)cc4)CC3)cc2)O1` [Compound 13, N-(4-(4-(4-(((2R,4R)-2-(2,4-dichlorophenyl)-2-methyl-1,3-dioxolan-4-yl)methoxy)phenyl)piperazin-1-yl)phenyl)nicotinamide] returned an IC50 in data set [1] of over 30 µM. Also, the “PAMPA -log Pe” value in data set [2] is 7.9 ± 0.03.
Consider `C[C@@]1(c2ccc(Cl)cc2Cl)OC[C@@H](COc2ccc(N3CCN(c4ccc(NC(=O)c5ccncc5)cc4)CC3)cc2)O1` [Compound 14, N-(4-(4-(4-(((2R,4R)-2-(2,4-dichlorophenyl)-2-methyl-1,3-dioxolan-4-yl)methoxy)phenyl)piperazin-1-yl)phenyl)isonicotinamide], for which, in data set [3], the IC50 was over 10 µM.
On the same count and under the same terms, under `C[C@]1(c2ccc(Cl)cc2Cl)OC[C@@H](COc2ccc(N3CCN(c4ccc(NC(=O)c5ccccc5)cc4)CC3)cc2)O1` [Compound 15, N-(4-(4-(4-(((2S,4R)-2-(2,4-dichlorophenyl)-2-methyl-1,3-dioxolan-4-yl)methoxy)phenyl)piperazin-1-yl)phenyl)benzamide] stands over 10 µM.
With `C[C@]1(c2ccc(Cl)cc2Cl)OC[C@@H](COc2ccc(N3CCN(c4ccc(NC(=O)c5ccc6ccccc6c5)cc4)CC3)cc2)O1` [Compound 16, N-(4-(4-(4-(((2S,4R)-2-(2,4-dichlorophenyl)-2-methyl-1,3-dioxolan-4-yl)methoxy)phenyl)piperazin-1-yl)phenyl)-2-naphthamide], the IC50 in data set [3] is over 10 µM.
As to `C[C@]1(c2ccc(Cl)cc2Cl)OC[C@@H](COc2ccc(N3CCN(c4ccc(NC(=O)c5cccnc5)cc4)CC3)cc2)O1` [Compound 18, N-(4-(4-(4-(((2S,4R)-2-(2,4-dichlorophenyl)-2-methyl-1,3-dioxolan-4-yl)methoxy)phenyl)piperazin-1-yl)phenyl)nicotinamide], in data set [1], the half-inhibitory concentration (IC50) was over 20 µM.
Regarding `C[C@]1(c2ccc(Cl)cc2Cl)OC[C@@H](COc2ccc(N3CCN(c4ccc(NC(=O)c5ccncc5)cc4)CC3)cc2)O1` [Compound 19, N-(4-(4-(4-(((2S,4R)-2-(2,4-dichlorophenyl)-2-methyl-1,3-dioxolan-4-yl)methoxy)phenyl)piperazin-1-yl)phenyl)isonicotinamide], the IC50 in data set [3] was over 10 µM.
By microsomal CLint is commonly meant a measure of how fast metabolising enzymes remove a compound, apart from limits set by blood flow. A lower microsomal CLint goes with greater metabolic stability. `C[C@@]1(c2ccc(Cl)cc2Cl)OC[C@@H](COc2ccc(N3CCN(c4ccc(NC(=O)c5cccc(O)c5)cc4)CC3)cc2)O1` [Compound 27, N-(4-(4-(4-(((2R,4R)-2-(2,4-dichlorophenyl)-2-methyl-1,3-dioxolan-4-yl)methoxy)phenyl)piperazin-1-yl)phenyl)-3-hydroxybenzamide] yielded an IC50 in data set [1] of over 30 µM. In data set [4], this compound came in with a microsomal CLint of under 3 µL/min/mg.
On to `C[C@]1(c2ccc(Cl)cc2Cl)OC[C@@H](COc2ccc(N3CCN(c4ccc(NC(=O)c5ccoc5)cc4)CC3)cc2)O1` [Compound 35, N-(4-(4-(4-(((2S,4R)-2-(2,4-dichlorophenyl)-2-methyl-1,3-dioxolan-4-yl)methoxy)phenyl)piperazin-1-yl)phenyl)furan-3-carboxamide], for which the “Hh pathway inhibition, result in words” value in data set [5] was “inactive”.
Same read-out and setting: then `C[C@]1(c2ccc(Cl)cc2Cl)OC[C@@H](COc2ccc(N3CCN(c4ccc(NC(=O)c5ccsc5)cc4)CC3)cc2)O1` [Compound 36, N-(4-(4-(4-(((2S,4R)-2-(2,4-dichlorophenyl)-2-methyl-1,3-dioxolan-4-yl)methoxy)phenyl)piperazin-1-yl)phenyl)thiophene-3-carboxamide], with “inactive”.
What is called half-life is the time needed for the level to fall by half in the phase considered. A higher half-life goes with slow loss. Take `CCC(C)n1ncn(-c2ccc(N3CCN(c4ccc(OCC5COC(Cn6cncn6)(c6ccc(Cl)cc6Cl)O5)cc4)CC3)cc2)c1=O` (stereo not shown) [ITZ, Itraconazole]: the “Efflux Pump Substrates, BCRP” value in data set [6] is on record as “not a substrate”. Further, in data set [7], the “Efflux Pump Substrates, P-gp” value was “not a substrate”. In data set [4], this compound showed a half-life of 27 ± 6.2 min.
